For this assay, the target named is T1, Y2 receptors (Homo sapiens, UniProt P49146).
T1 construct: endogenous in cells; host or cells: KAN-Ts cells (membranes)
T1 sequence (P49146 1-381): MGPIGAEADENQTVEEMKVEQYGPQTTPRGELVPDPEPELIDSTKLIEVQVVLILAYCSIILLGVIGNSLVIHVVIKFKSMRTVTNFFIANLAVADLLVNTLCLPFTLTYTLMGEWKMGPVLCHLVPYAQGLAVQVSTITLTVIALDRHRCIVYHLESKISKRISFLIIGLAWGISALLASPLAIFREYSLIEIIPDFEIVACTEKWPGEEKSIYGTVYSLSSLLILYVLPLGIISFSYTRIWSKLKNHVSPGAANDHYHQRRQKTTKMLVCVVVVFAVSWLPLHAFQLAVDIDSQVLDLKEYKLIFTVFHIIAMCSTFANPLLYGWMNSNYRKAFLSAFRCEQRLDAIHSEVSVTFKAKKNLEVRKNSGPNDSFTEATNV
In words: Radioligand binding assay ([125I]PYY, KAN-Ts cell membranes). Particulars: Table 2, [125I]PYY 80 pM, average of results, read-out: IC50. The essentials:
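Membranes from KAN-Ts cells endogenously expressing Y2 incubated 1 h at rt with 80 pM [^125I]PYY ± test compound in HEPES buffer with NaCl, Ca^2+ and Mg^2+. Bound radioactivity collected by filtration; specific binding defined with […]. IC50 from sigmoidal fit, averaged over 3-8 duplicate experiments.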
For orientation: IC50 means the concentration that inhibits the measured activity by half. Regarding `CCC(CC)C(=O)Nc1ccc(N2CCN(C(C(=O)N(CC)CC)c3ccc(O)cc3)CC2)c(F)c1` (centres unmarked) [Example 252, N-(4-{4-[Diethylcarbamoyl-(4-hydroxy-phenyl)-methyl]-piperazin-1-yl}-3-fluoro-phenyl)-2-ethyl-butyramide], the IC50 was 104 nM.
Then `CCC(CC)C(=O)Nc1ccc(N2CCN(C(C(=O)N(CC)CC)c3ccc(Cl)cc3)CC2)c(F)c1` (centres unmarked) [Example 253, N-(4-{4-[(4-Chloro-phenyl)-diethylcarbamoyl-methyl]-piperazin-1-yl}-3-fluoro-phenyl)-2-ethyl-butyramide], with 102 nM; and `CCC(CC)C(=O)Nc1ccc(N2CCN(C(C(=O)N(CC)CC)c3ccc(C#N)cc3)CC2)c(F)c1` (centres unmarked) [Example 254, N-(4-{4-[(4-Cyano-phenyl)-diethylcarbamoyl-methyl]-piperazin-1-yl}-3-fluoro-phenyl)-2-ethyl-butyramide], with 44 nM.
`CCOc1ccc(C(C(=O)N(CC)CC)N2CCN(c3ccc(NC(=O)C(CC)CC)cc3F)CC2)cc1` (centres unmarked) [Example 255, N-(4-{4-[Diethylcarbamoyl-(4-ethoxy-phenyl)-methyl]-piperazin-1-yl}-3-fluoro-phenyl)-2-ethyl-butyramide]: the IC50 stood at 44 nM.
Then `CCC(CC)C(=O)Nc1ccc(N2CCN(C(C(=O)N(CC)CC)c3ccc(OC(F)(F)F)cc3)CC2)c(F)c1` (centres unmarked) [Example 256, N-(4-{4-[Diethylcarbamoyl-(4-trifluoromethoxy-phenyl)-methyl]-piperazin-1-yl}-3-fluoro-phenyl)-2-ethyl-butyramide], with 26 nM; and `CCC(CC)C(=O)Nc1ccc(N2CCN(C(C(=O)N(CC)CC)c3ccccc3)C(C)C2)c(F)c1` (centres unmarked) [Example 257, N-{4-[4-(Diethylcarbamoyl-phenyl-methyl)-3-methyl-piperazin-1-yl]-3-fluoro-phenyl}-2-ethyl-butyramide], with 68 nM.
To `CCC(CC)C(=O)Nc1ccc(N2CCN(C(C(=O)N(CC)CC)c3ccccc3)CC2C)c(F)c1` (centres unmarked) [Example 258] belongs 145 nM.
Then `CCC(CC)C(=O)Nc1ccc(N2CCN(C(C(=O)c3ccccc3)c3ccccc3)CC2)c(F)c1` (centres unmarked) [Example 259, 2-Ethyl-N-{3-fluoro-4-[4-(2-oxo-1,2-diphenyl-ethyl)-piperazin-1-yl]-phenyl}-butyramide], with 70 nM; and `CCC(CC)C(=O)Nc1ccc(N2CCN(C(C(=O)N(CC)CC)c3ccccn3)CC2)c(F)c1` (centres unmarked) [Example 260, N-{4-[4-(Diethylcarbamoyl-pyridin-2-yl-methyl)-piperazin-1-yl]-3-fluoro-phenyl}-2-ethyl-butyramide], with 100 nM; and `CCC(CC)C(=O)Nc1ccc(N2CCN(C(C(=O)N3CCC(F)(F)C3)c3ccccn3)CC2)c(F)c1` (centres unmarked) [Example 261, N-(4-{4-[2-(3,3-Difluoro-pyrrolidin-1-yl)-2-oxo-1-pyridin-2-yl-ethyl]-piperazin-1-yl}-3-fluoro-phenyl)-2-ethyl-butyramide], with 130 nM.
Regarding `CCC(CC)C(=O)Nc1ccc(N2CCN(C(C(=O)OC)c3ccc(O)cc3)CC2)c(F)c1` (centres unmarked) [Example 262, {4-[4-(2-Ethyl-butyrylamino)-2-fluoro-phenyl]-piperazin-1-yl}-(4-hydroxy-phenyl)-acetic acid methyl ester], the half-inhibitory concentration (IC50) came out at 162 nM.
As to `CCC(CC)C(=O)Nc1ccc(N2CCN(C(C(=O)OC)c3ccc(OC)cc3)CC2)c(F)c1` (centres unmarked) [Example 263, {4-[4-(2-Ethyl-butyrylamino)-2-fluoro-phenyl]-piperazin-1-yl}-(4-methoxy-phenyl)-acetic acid methyl ester], the 50% inhibitory concentration (IC50) was found to be 250 nM.
To `CCC(CC)C(=O)Nc1ccc(N2CCN(C(C(=O)OC)c3ccccn3)CC2)c(F)c1` (centres unmarked) [Example 264, {4-[4-(2-Ethyl-butyrylamino)-2-fluoro-phenyl]-piperazin-1-yl}-pyridin-2-yl-acetic acid methyl ester] belongs 550 nM; to `CCC(CC)C(=O)Nc1ccc(N2CCN(C(CO)c3ccccc3)CC2)c(F)c1` (centres unmarked) [Example 266, 2-Ethyl-N-{3-fluoro-4-[4-(2-hydroxy-1-phenyl-ethyl)-piperazin-1-yl]-phenyl}-butyramide], 785 nM.
To `CCC(CC)C(=O)Nc1ccc(N2CCN(C(C)c3ccccc3)CC2)c(F)c1` (centres unmarked) [Example 267, 2-Ethyl-N-{3-fluoro-4-[4-(1-phenyl-ethyl)-piperazin-1-yl]-phenyl}-butyramide] belongs 1270 nM; to `CCC(CC)C(=O)Nc1ccc(N2CCN(Cc3ccccc3)CC2)c(F)c1` [Example 268, N-[4-(4-Benzyl-piperazin-1-yl)-3-fluoro-phenyl]-2-ethyl-butyramide], 1400 nM; to `CCC(CC)C(=O)Nc1ccc(N2CCN(Cc3ccc4c(c3)OCO4)C(C(=O)OC)C2)c(F)c1` (centres unmarked) [Example 270, 1-Benzo[1,3]dioxol-5-ylmethyl-4-[4-(2-ethyl-butyrylamino)-2-fluoro-phenyl]-piperazine-2-carboxylic acid methyl ester], 3000 nM.
For the compound `CCC(CC)C(=O)Nc1ccc(N2CCN(Cc3ccccc3)C(C(=O)OC)C2)c(F)c1` (centres unmarked) [Example 271, 1-Benzyl-4-[4-(2-ethyl-butyrylamino)-2-fluoro-phenyl]-piperazine-2-carboxylic acid methyl ester], the IC50 amounted to 4000 nM.
With `CCC(CC)C(=O)Nc1ccc(N2CC3CC2CN3C(C(=O)N(CC)CC)c2ccccc2)c(F)c1` (centres unmarked) [Example 272, N-{4-[5-(Diethylcarbamoyl-phenyl-methyl)-2,5-diaza-bicyclo[2.2.1]heptyl]-3-fluoro-phenyl}-2-ethyl-butyramide], the IC50 turned out to be 4000 nM.
Turning to `CCC(CC)C(=O)Nc1ccc(N2CCN(Cc3cc(F)cc(F)c3)C(C(=O)OC)C2)c(F)c1` (centres unmarked) [Example 273, 1-(3,5-Difluoro-benzyl)-4-[4-(2-ethyl-butyrylamino)-2-fluoro-phenyl]-piperazine-2-carboxylic acid methyl ester], the IC50 was determined as 7000 nM.
In the case of `CCN(CC)C(=O)C(c1ccccc1)N1CCN(c2ccc(N3CCCC3=O)cc2F)CC1` (centres unmarked) [Example 274, N,N-Diethyl-2-{4-[2-fluoro-4-(2-oxo-pyrrolidin-1-yl)-phenyl]-piperazin-1-yl}-2-phenyl-acetamide], the concentration for half-maximal inhibition (IC50) stood at 1600 nM.
With `CCN(CC)C(=O)C(c1ccccc1)N1CCN(c2ccc(CC(=O)N3CCCCC3c3ccccc3)cc2F)CC1` (centres unmarked) [Example 275, N,N-Diethyl-2-(4-{2-fluoro-4-[2-oxo-2-(2-phenyl-piperidin-1-yl)-ethyl]-phenyl}-piperazin-1-yl)-2-phenyl-acetamide], the IC50 was 142 nM.
On to `CCN(CC)C(=O)C(c1ccccc1)N1CCN(c2ccc(CC(=O)N3CCCC3c3ccccc3)cc2F)CC1` (centres unmarked) [Example 276, N,N-Diethyl-2-(4-{2-fluoro-4-[2-oxo-2-(2-phenyl-pyrrolidin-1-yl)-ethyl]-phenyl}-piperazin-1-yl)-2-phenyl-acetamide], for which the 50% inhibitory concentration (IC50) came out at 200 nM.
To `CCC1CCCCN1C(=O)Cc1ccc(N2CCN(C(C(=O)N(CC)CC)c3ccccc3)CC2)c(F)c1` (centres unmarked) [Example 277, N,N-Diethyl-2-(4-{4-[2-(2-ethyl-piperidin-1-yl)-2-oxo-ethyl]-2-fluoro-phenyl}-piperazin-1-yl)-2-phenyl-acetamide] belongs 320 nM; to `CCN(CC)C(=O)C(c1ccccc1)N1CCN(c2ccc(CC(=O)N(C)Cc3ccco3)cc2F)CC1` (centres unmarked) [Example 278, N,N-Diethyl-2-(4-{2-fluoro-4-[(furan-2-ylmethyl-methyl-carbamoyl)-methyl]-phenyl}-piperazin-1-yl)-2-phenyl-acetamide], 320 nM.
To `CCN(CC)C(=O)C(c1ccccc1)N1CCN(c2ccc(CC(=O)N3C(C)CCC3C)cc2F)CC1` (centres unmarked) [Example 279, 2-(4-{4-[2-(2,5-Dimethyl-pyrrolidin-1-yl)-2-oxo-ethyl]-2-fluoro-phenyl}-piperazin-1-yl)-N,N-diethyl-2-phenyl-acetamide] belongs 540 nM.
Then `CCN(CC)C(=O)C(c1ccccc1)N1CCN(c2ccc(CC(=O)N3CCCCC3c3cccnc3)cc2F)CC1` (centres unmarked) [Example 280, N,N-Diethyl-2-(4-{2-fluoro-4-[2-oxo-2-(3,4,5,6-tetrahydro-2H-[2,3′]bipyridinyl-1-yl)-ethyl]-phenyl}-piperazin-1-yl)-2-phenyl-acetamide], with 570 nM; and `CCC(CC)NC(=O)Cc1ccc(N2CCN(C(C(=O)N(CC)CC)c3ccccc3)CC2)c(F)c1` (centres unmarked) [Example 281, N,N-Diethyl-2-(4-{4-[(1-ethyl-propylcarbamoyl)-methyl]-2-fluoro-phenyl}-piperazin-1-yl)-2-phenyl-acetamide], with 560 nM.
On to `CCN(CC)C(=O)C(c1ccccc1)N1CCN(c2ccc(CC(=O)N3CCCC3C)cc2F)CC1` (centres unmarked) [Example 282, N,N-Diethyl-2-(4-{2-fluoro-4-[2-(2-methyl-pyrrolidin-1-yl)-2-oxo-ethyl]-phenyl}-piperazin-1-yl)-2-phenyl-acetamide], for which the IC50 amounted to 940 nM.
Take `CCN(CC)C(=O)C(c1ccccc1)N1CCN(c2ccc(CC(=O)N3CCCC3)cc2F)CC1` (centres unmarked) [Example 283, N,N-Diethyl-2-{4-[2-fluoro-4-(2-oxo-2-pyrrolidin-1-yl-ethyl)-phenyl]-piperazin-1-yl}-2-phenyl-acetamide]: the IC50 is 1200 nM.
To `CCN(CC)C(=O)Cc1ccc(N2CCN(C(C(=O)N(CC)CC)c3ccccc3)CC2)c(F)c1` (centres unmarked) [Example 284] belongs 1500 nM; to `CCN(CC)C(=O)C(c1ccccc1)N1CCN(c2ccc(CC(=O)NCc3ccccc3)cc2F)CC1` (centres unmarked) [Example 285], 1900 nM.

Source of the values: patent publication US8183239B2, “Substituted piperazines and piperidines as modulators of the neuropeptide Y2 receptor” (Janssen Pharmaceutica NV, priority 2005, dated 2012).
